In patent US6211242A, “Benzamide derivatives as vasopressin antagonists” (Fujisawa Pharmaceutical Co., Ltd., priority 1994, dated 2001):

Columns and labels:
[1] = molecular target: T1, Vasopressin 1 (V1) receptor (Homo sapiens, UniProt P37288); assay: Vasopressin 1 (V1) receptor binding (competition with 3H-vasopressin, platelet membrane preparation); details: 1.5 nM 3H-vasopressin, platelet membranes, 15 minutes at 30° C., pH 7.4
T1 construct: Platelet-rich plasma (PRP) was prepared by centrifugation of whole blood; from tissue; host or cells: platelet membranes from blood of normal subjects
T1 sequence (P37288 whole entry): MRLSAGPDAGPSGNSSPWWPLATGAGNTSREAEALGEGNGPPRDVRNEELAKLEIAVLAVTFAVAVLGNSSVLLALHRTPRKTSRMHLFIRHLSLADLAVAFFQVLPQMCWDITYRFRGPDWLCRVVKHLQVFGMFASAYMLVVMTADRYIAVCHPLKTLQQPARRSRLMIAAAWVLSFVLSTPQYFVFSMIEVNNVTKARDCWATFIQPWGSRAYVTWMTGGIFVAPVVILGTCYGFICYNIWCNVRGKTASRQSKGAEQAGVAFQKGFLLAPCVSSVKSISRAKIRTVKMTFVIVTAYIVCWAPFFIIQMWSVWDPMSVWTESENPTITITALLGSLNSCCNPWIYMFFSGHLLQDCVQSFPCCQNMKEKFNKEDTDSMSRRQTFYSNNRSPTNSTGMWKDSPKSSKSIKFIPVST
Experimental: Vasopressin 1 (V1) receptor binding
Blood was obtained by venipuncture from normal subjects. Platelet-rich plasma (PRP) was prepared by centrifugation of whole blood at 200×g for 10 minutes. PRP was centrifuged at 45,000×g for 30 minutes. The remaining pellet was resuspended in 10 volume of ice cold 100 mM Tris-HCl (pH 7.4) buffer (containing 5 mM MgCl2, 0.1% bovine serum albumin and 1 mM EGTA), and centrifuged at 45,000×g for 30 minutes again. The final pellet was resuspended in 100 mM Tris-HCl buffer. The resulting membrane preparation was used immediately for the binding assay.
Competition assays were conducted at equilibrium (15 minutes at 30° C.) by using 1.5 nM ^3 H-vasopressin (40-87 Ci/mmol; New England Nuclear) in 100 mM Tris-HCl (pH 7.4) buffer. Nonspecific binding was determined by using 1 μM vasopressin. After incubation, reaction was terminated by adding 5 ml of ice-cold 100 mM Tris-HCl (pH 7.4) buffer, and then filtered rapidly through Whatman glass filter (GF/C). The filter was washed twice with the same buffer. The glass filter was mixed with liquid scintilation cocktail, and radioactivity was counted in a liquid scintilation counter. Competition activity of the test compound was represented by IC50 values.

[2] = molecular target: T2, human V2 receptor (Homo sapiens, UniProt P30518); assay: Vasopressin 2 (V2) receptor binding (competition with 3H-vasopressin, CHO cells expressing human V2 receptor); details: 0.5 nM 3H-vasopressin, CHO cell membranes, 2 hours at 22° C., pH 7.4
T2 construct: expressed in transfected cells
T2 sequence (P30518 whole entry): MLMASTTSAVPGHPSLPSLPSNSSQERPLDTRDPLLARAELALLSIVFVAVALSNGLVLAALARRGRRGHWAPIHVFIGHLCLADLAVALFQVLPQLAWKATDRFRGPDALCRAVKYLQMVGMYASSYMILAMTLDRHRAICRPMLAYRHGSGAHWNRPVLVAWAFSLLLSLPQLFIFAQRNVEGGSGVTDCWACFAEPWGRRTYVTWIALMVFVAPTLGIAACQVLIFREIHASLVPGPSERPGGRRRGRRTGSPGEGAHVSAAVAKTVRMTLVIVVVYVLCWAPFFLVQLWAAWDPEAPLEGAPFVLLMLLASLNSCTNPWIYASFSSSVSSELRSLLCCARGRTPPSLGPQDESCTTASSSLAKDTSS
Experimental: Vasopressin 2 (V2) receptor binding
For binding assays, the receptor cDNA was permanently expressed in Chinese hamster ovary (CHO) cells. CHO cells were transfected with a vector directing expression of the cDNA for the human V2 receptor and the clonal cell lines expressing human V2 receptor was established essentially as described previously (Nakajima, Y., et. al. J. Biol. Chem., 1992, 267, 2437).
DNA-transfected cells were harvested and homogenized in ice cold 250 mM sucrose buffer containing 25 mM Tris-HCl (pH 7.4), 10 mM MgCl2, 1 mM EDTA and 5 μg/ml p-amidinophenylmethylsulfonyl fluoride (A-PMSF). The homogenate was centrifuged at 500×g for 10 minutes. The supernatant was centrifuged at 100,000×g for 1 hour. The final pellet was suspended in 25 mM Tris-HCl (pH 7.4) buffer (containing 10 mM […], 1 mM EDTA and 5 μg/ml A-PMSF), and stored in small aliquots at -80° C.
Competition assays were conducted at equilibrium (2 hours at 22° C.) by using 0.5 nM ^3 H-vasopressin (40-87 Ci/mmol, New England Nuclear) in 100 mM Tris-HCl (pH 7.4) buffer (containing 5 mM MgCl2, 5 μg/ml A-PMSF, 4 μg/ml leupeptin, 40 μg/ml bacitracin, 20 μg/ml chymostatin and 0.1% bovine serum albumin). Nonspecific binding was determined by using 1 μM vasopressin. After incubation, reaction mixture was rapidly filtered through Whatman glass filter (GF/C). […] The radioactivity was counted in a liquid scintilation counter. […]

Row | IC50 [1] | IC50 [2] | Compound
1 | 4.4 nM |  | Cc1ccc(N(C)C(=O)c2ccc(NC(=O)c3ccccc3C)cc2)c(OCCCCCC(=O)N2CCN(C)CC2)c1 [27-58), 4-(Methylphenyl-2-carboxamido)-N-methyl-N-[4-methyl-2-[5-(4-methylpiperazin-1-yl)carbonylpent-1-yloxy]phenyl]benzamide]
2 |  | 4.4 nM | Cc1ccc(-c2ccccc2C(=O)Nc2ccc(C(=O)N(C)c3ccccc3OCCN(C)CCC(=O)N3CCN(C)CC3)cc2)cc1 [71-1)]
3 |  | 3 nM | Cc1ccc(-c2ccccc2C(=O)Nc2ccc(C(=O)N(C)c3ccccc3OCc3ccc(C(=O)N4CCN(C)CC4)cc3)cc2)cc1 [27-36)]
